Test results taken from US9963462B2 (priority 2015, dated 2018).

What was measured:
[1] = target: SNAP-hSPR (sepiapterin reductase, SPR) (Homo sapiens, UniProt P35270); assay: biochemical; type: binding; details: terbium labelled SNAP-hSPR / SSZ labelled SNAP-EGFP; read-out: hTR-FRET IC50
Description: TR-FRET Assay: A TR-FRET (homogeneous, time-resolved, fluorescence resonance energy transfer) assay was used to assess activity of compounds following standard assay conditions. […] Compounds were screened at different concentrations and IC50 values calculated.
Terbium labelled SNAP-hSPR and SSZ (sulfasalazine) labelled SNAP-EGFP were used as the protein pair in this assay. Compounds were screened at different concentrations, and 1050 and Kd values calculated.

[2] = tested on: BH4 levels in SK-N-BE (2) cells; assay: SKN-N-BE (2) cellular assay, BH4 levels by LC-MS; type: cell-based; details: Homo sapiens, SKNBE2, read-out: SK-N-BE(2) IC50, SK-N-BE (2) cells, BH4 levels by LC-MS
[3] = tested on: BH4 production in human peripheral blood mononuclear cells (PBMCs); assay: hPBMC assay, inhibition of BH4 production by LC-MS (anti-CD3/anti-CD28 stimulated); type: cell-based; details: PBMC, read-out: hPBMC IC50

Sequence of SNAP-hSPR (sepiapterin reductase, SPR) (P35270 whole entry): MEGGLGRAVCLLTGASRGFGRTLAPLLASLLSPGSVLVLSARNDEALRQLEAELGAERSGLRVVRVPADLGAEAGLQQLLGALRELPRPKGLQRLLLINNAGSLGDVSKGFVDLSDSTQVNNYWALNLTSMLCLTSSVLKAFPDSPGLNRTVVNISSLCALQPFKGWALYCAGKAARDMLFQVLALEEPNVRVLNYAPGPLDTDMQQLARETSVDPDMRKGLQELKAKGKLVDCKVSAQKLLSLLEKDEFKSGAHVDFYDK

SMILES | IC50 [1] | IC50 [2] | IC50 [3]
Cc1cc(=O)[nH]c(-n2ncc(C(=O)N3CCc4ccccc4C3)c2C)n1 [Q-0279, 6-methyl-2-[5-methyl-4-(1,2,3,4-tetrahydroisoquinoline-2-carbonyl)-1H-pyrazol-1-yl]-3,4-dihydropyrimidin-4-one] | 7 nM | 1000 nM | 2200 nM
Cc1c(C(=O)N2CCc3ccccc3C2)cnn1-c1nc2ccsc2c(=O)[nH]1 [Q-0354] | 2 nM | 100 nM | 380 nM
Cc1c(C(=O)N2CCc3ccccc3C2)cnn1-c1nc2cc[nH]c2c(=O)[nH]1 [Q-0378] | 30 nM | 4100 nM | 740 nM
Cc1c(C(=O)N2CCC(C(F)(F)F)CC2)cnn1-c1nc2ccsc2c(=O)[nH]1 [Q-0379] | 2 nM | 84 nM | 280 nM
Cc1c(C(=O)N2CCC(C(F)(F)F)CC2)cnn1-c1nc2c(c(=O)[nH]1)CCC2 [Q-0418] | 2 nM | 50 nM | 32 nM
Cc1c(C(=O)N2CCC(C(F)(F)F)CC2C)cnn1-c1nc2c(c(=O)[nH]1)CCC2 (stereo not drawn) [Q-0423] | 5 nM | 100 nM | 410 nM
Cc1c(C(=O)N2CCC(C(F)(F)F)CC2)cnn1-c1nc2[nH]ccc2c(=O)[nH]1 [Q-0427] | 9 nM | 3100 nM | 1100 nM
Cc1c(C(=O)N2CCC(C3CC3)CC2)cnn1-c1nc2c(c(=O)[nH]1)CCC2 [Q-0451] | 2 nM | 19 nM | 13 nM
O=C(c1cnn(-c2nc3c(c(=O)[nH]2)COC3)c1)N1CCC(C(F)(F)F)CC1 [Q-0453, 2-{4-[4-(trifluoromethyL)piperidine-1-carbonyl]-1H-pyrazol-1-yl}-3H,4H,5H,7H-furo[3,4-d]pyrimidin-4-one] | 6 nM | 1600 nM | 1300 nM
O=C(c1cnn(-c2nn3cccc3c(=O)[nH]2)c1)N1CCC(C(F)(F)F)CC1 [Q-0467, 2-{4-[4-(trifluoromethyl)piperidine-1-carbonyl]-1H-pyrazol-1-yl}-3H,4H-pyrrolo[2,1f][1,2,4]triazin-4-one] | 2 nM | 82 nM | 100 nM
Cc1c(C(=O)N2CCC(C)(C#N)CC2)cnn1-c1nc2c(c(=O)[nH]1)CCC2 [Q-0518] | 3 nM | 500 nM | 32 nM
CCC1(C#N)CCN(C(=O)c2cnn(-c3nc4c(c(=O)[nH]3)CCC4)c2C)CC1 [Q-0519] | 3 nM | 53 nM | 120 nM
Cc1c(C(=O)N2CCN(CC(F)(F)F)CC2)cnn1-c1nc2c(c(=O)[nH]1)COC2 [Q-1344] | 9 nM |  | 320 nM
Cc1c(C(=O)N2CCN(C3CCCC3(F)F)CC2)cnn1-c1nn2cccc2c(=O)[nH]1 (stereo not drawn) [Q-1362] | 1 nM |  | 43 nM
Cc1c(C(=O)N2CCN(S(=O)(=O)c3ccccc3)CC2)cnn1-c1nn2cccc2c(=O)[nH]1 [Q-1535] | 1 nM |  | 110 nM
Cc1c(C(=O)N2CCN(S(C)(=O)=O)CC2)cnn1-c1nn2cccc2c(=O)[nH]1 [Q-1539] | 4 nM |  | 780 nM
Cc1c(C(=O)N2CCN(S(=O)(=O)C(C)C)CC2)cnn1-c1nn2cccc2c(=O)[nH]1 [Q-1558] | 2 nM |  | 92 nM
CCS(=O)(=O)N1CCN(C(=O)c2cnn(-c3nn4cccc4c(=O)[nH]3)c2C)CC1 [Q-1581] | 4 nM |  | 170 nM
Cc1c(C(=O)N2CCN(S(=O)(=O)Cc3ccccc3)CC2)cnn1-c1nn2cccc2c(=O)[nH]1 [Q-1591] | 3 nM |  | 110 nM

SMILES | IC50 [1] | IC50 [2] | IC50 [3]
Cc1c(C(=O)N2CCN(S(=O)(=O)CCC(F)(F)F)CC2)cnn1-c1nn2cccc2c(=O)[nH]1 [Q-1728] | 1 nM |  | 86 nM
Cc1c(C(=O)N2CCN(S(=O)(=O)c3cccc(C#N)c3)CC2)cnn1-c1nn2cccc2c(=O)[nH]1 [Q-1794] | 2 nM |  | 250 nM
Cc1c(C(=O)N2CCN(S(=O)(=O)c3ccccc3C(F)(F)F)CC2)cnn1-c1nn2cccc2c(=O)[nH]1 [Q-1796] | 1 nM |  | 260 nM
CCCS(=O)(=O)N1CCN(C(=O)c2cnn(-c3nn4cccc4c(=O)[nH]3)c2C)CC1 [Q-1797] | 1 nM |  | 79 nM
Cc1c(C(=O)N2CCN(S(=O)(=O)c3ccccc3F)CC2)cnn1-c1nn2cccc2c(=O)[nH]1 [Q-1799] | 1 nM |  | 100 nM
Cc1nc(C)c(S(=O)(=O)N2CCN(C(=O)c3cnn(-c4nn5cccc5c(=O)[nH]4)c3C)CC2)s1 [Q-1805] | 1 nM |  | 130 nM
Cc1c(C(=O)N2CCN(S(=O)(=O)c3ccc(F)cc3)CC2)cnn1-c1nn2cccc2c(=O)[nH]1 [Q-1807] | 1 nM |  | 110 nM
Cc1c(C(=O)N2CCN(S(=O)(=O)C3CCCCC3)CC2)cnn1-c1nn2cccc2c(=O)[nH]1 [Q-1818] | 1 nM |  | 95 nM
Cc1c(C(=O)N2CCN(S(=O)(=O)c3ccccc3Cl)CC2)cnn1-c1nn2cccc2c(=O)[nH]1 [Q-1819] | 1 nM |  | 91 nM
Cc1cc(C)c(S(=O)(=O)N2CCN(C(=O)c3cnn(-c4nn5cccc5c(=O)[nH]4)c3C)CC2)c(C)c1 [Q-1820] | 1 nM |  | 94 nM
Cc1c(C(=O)N2CCN(S(=O)(=O)c3cccs3)CC2)cnn1-c1nn2cccc2c(=O)[nH]1 [Q-1821] | 1 nM |  | 130 nM
Cc1c(C(=O)N2CCN(S(=O)(=O)c3cccc(Cl)c3)CC2)cnn1-c1nn2cccc2c(=O)[nH]1 [Q-1822] | 1 nM |  | 120 nM
Cc1c(C(=O)N2CCN(S(=O)(=O)c3cccc(F)c3)CC2)cnn1-c1nn2cccc2c(=O)[nH]1 [Q-1823] | 1 nM |  | 110 nM
Cc1c(C(=O)N2CCN(S(=O)(=O)c3c(Cl)cccc3Cl)CC2)cnn1-c1nn2cccc2c(=O)[nH]1 [Q-1836] | 1 nM |  | 270 nM
Cc1c(C(=O)N2CCN(S(=O)(=O)c3ccc(C#N)cc3)CC2)cnn1-c1nn2cccc2c(=O)[nH]1 [Q-1838] | 1 nM |  | 170 nM
Cc1c(C(=O)N2CCN(S(=O)(=O)c3cccc4ccccc34)CC2)cnn1-c1nn2cccc2c(=O)[nH]1 [Q-1841] | 1 nM |  | 87 nM
Cc1c(C(=O)N2CCN(S(=O)(=O)c3ccc(Cl)s3)CC2)cnn1-c1nn2cccc2c(=O)[nH]1 [Q-1842] | 1 nM |  | 150 nM
Cc1c(C(=O)N2CCN(S(=O)(=O)N(C)C)CC2)cnn1-c1nn2cccc2c(=O)[nH]1 [Q-1846] | 1 nM |  | 170 nM
Cc1c(C(=O)N2CCN(S(=O)(=O)c3ccccc3C#N)CC2)cnn1-c1nn2cccc2c(=O)[nH]1 [Q-1847] | 1 nM |  | 64 nM

SMILES | IC50 [1] | IC50 [2] | IC50 [3]
Cc1noc(C)c1S(=O)(=O)N1CCN(C(=O)c2cnn(-c3nn4cccc4c(=O)[nH]3)c2C)CC1 [Q-1848] | 1 nM |  | 210 nM
Cc1c(C(=O)N2CCN(S(=O)(=O)c3cccnc3)CC2)cnn1-c1nn2cccc2c(=O)[nH]1 [Q-1857] | 1 nM |  | 150 nM
Cc1c(C(=O)N2CCN(S(=O)(=O)c3cc(Cl)sc3Cl)CC2)cnn1-c1nn2cccc2c(=O)[nH]1 [Q-1858] | 1 nM |  | 260 nM
Cc1c(C(=O)N2CCN(S(=O)(=O)c3cccc4cccnc34)CC2)cnn1-c1nn2cccc2c(=O)[nH]1 [Q-1859] | 1 nM |  | 160 nM
Cc1c(C(=O)N2CCN(S(=O)(=O)c3ccccc3OC(F)(F)F)CC2)cnn1-c1nn2cccc2c(=O)[nH]1 [Q-1861] | 1 nM |  | 98 nM
Cc1c(C(=O)N2CCN(S(=O)(=O)c3ccc(Cl)nc3)CC2)cnn1-c1nn2cccc2c(=O)[nH]1 [Q-1862] | 2 nM |  | 250 nM
Cc1c(C(=O)N2CCN(S(=O)(=O)c3ccc(F)cc3F)CC2)cnn1-c1nn2cccc2c(=O)[nH]1 [Q-1866] | 2 nM |  | 80 nM
COC(=O)c1sccc1S(=O)(=O)N1CCN(C(=O)c2cnn(-c3nn4cccc4c(=O)[nH]3)c2C)CC1 [Q-1875] | 1 nM |  | 110 nM
Cc1c(C(=O)N2CCN(S(=O)(=O)c3ccc(F)cc3Cl)CC2)cnn1-c1nn2cccc2c(=O)[nH]1 [Q-1876] | 1 nM |  | 110 nM
Cc1c(C(=O)N2CCN(S(=O)(=O)c3cccc4nsnc34)CC2)cnn1-c1nn2cccc2c(=O)[nH]1 [Q-1882] | 2 nM |  | 92 nM
Cc1c(C(=O)N2CCC(C(F)(F)F)CC2)c(C(N)=O)nn1-c1nc2c(c(=O)[nH]1)CCC2 [Q-1884, 5-methyl-1-(4-oxo-4,5,6,7-tetrahydro-3H-cyclopenta[d]pyrimidin-2-yl)-4-(4-(trifluoromethyl)piperidine-1-carbonyl)-1H-pyrazole-3-carboxamide] | 1 nM |  | 84 nM
Cc1c(C(=O)N2CCN(S(=O)(=O)C(F)(F)F)CC2)cnn1-c1nn2cccc2c(=O)[nH]1 [Q-1886] | 2 nM |  | 110 nM
Cc1c(C(=O)N2CCN(C(C)C(F)(F)F)CC2)nnn1-c1nn2cccc2c(=O)[nH]1 (stereo not drawn) [Q-1889] | 1 nM |  | 36 nM
Cc1c(C(=O)N2CCn3cccc3C2)cnn1-c1nn2cccc2c(=O)[nH]1 [Q-1925] | 1 nM |  | 170 nM
Cc1c(C(=O)N2CCc3[nH]ncc3C2)cnn1-c1nn2cccc2c(=O)[nH]1 [Q-1932] | 3 nM |  | 2700 nM
Cc1c(C(=O)N2CC(c3ccnc(C(F)F)c3)C2)cnn1-c1nn2cccc2c(=O)[nH]1 [Q-2008] | 2 nM |  | 300 nM
Cc1c(C(=O)N2CC(c3ccnc(C(F)(F)F)c3)C2)cnn1-c1nn2cccc2c(=O)[nH]1 [Q-2009] | 2 nM |  | 370 nM
Cc1c(C(=O)N2CCN(CC3CCCO3)CC2)cnn1-c1nn2cccc2c(=O)[nH]1 (stereo not drawn) [Q-2016] | 1 nM |  | 45 nM
Cc1c(C(=O)N2CC(S(=O)(=O)c3ccccc3)C2)cnn1-c1nn2cccc2c(=O)[nH]1 [Q-2017] | 2 nM |  | 170 nM
